The values that follow come from patent publication US11925623B2 (priority 2020, dated 2024).

Entries after “also recorded” stand apart in the source; their conditions may differ.

One data set deals with H2S. The data set can be described thus: Zn-agar entrapment H2S measurement in cell culture. The class given is cell-based. Here is the method: To sterilized agar solution (1% w/v) was added 45 mM Zn Acetate and 4.5 mM NaOH (both prepared in sterile water). The solution was then applied to the non-adherent surface of the empty flasks and allowed to solidify. Cells were seeded in T-25 flask at 1 million cells/flask overnight. Cells were treated with sulfanegen at 0-500 μM concentrations and incubated for 6 hours. After the incubation period, the media was removed and 2 ml N,N-dimethyl-p-phenylenediamine chloride was added to the agar layer and incubated at RT for 10 mins. This was followed by addition of 400 μL of ferrous chloride and incubation for 20 minutes. The solution was then aliquoted into 96-well plate and absorbance was measured at 670 nm. The release of H2S was measured using a standard curve generated with NaSH under similar experimental conditions (incubation with NaSH was done for 1 hr).

A further data set concerns protein carbonyls. Put plainly: Protein carbonyl assay, i.c.v Abeta mouse model. Type of data set: in vivo, C57/BL6 mice. Here is the method: (§1) Eight-week old Wild type C57/BL6 mice were treated i.p. with sulfanegen at 50 and 100 mg/kg dose during the entire duration of experiment. The mice were injected with intracerebroventricular (i.c.v) Aβ1-42 on day 3 after initiation of drug treatment (1 nmol/mouse). Behavioral test (T-maze) was conducted 6 days after Aβ1-42 injection, which was followed by euthanization on day 8. Biochemical analysis of the collected brain tissues was conducted using ELISA method for quantitation of Aβ1-42, and immunohistochemical analysis for GFAP (inflammatory marker). The brain tissues were also analyzed for oxidative stress markers (GSH assay, see Example 5; and protein carbonyls, see Example 6). • Groups: • Saline control N=12, (N=5 study 2; N=7 study 3) • Abeta control N=15, (N=7 study 2; N=8 study 3) • Sulfanegen, 50 mg/kg, N=7 • Sulfanegen, 100 mg/kg, N=7
The protein carbonyl content is used as a marker of protein oxidation in the i.c.v Abeta mouse model (see Example 1). The amount of protein-hydrozone produced is quantified spectrophotometrically by Protein Carbonyl Colorimetric assay kit (Cayman Chemical, Ann Arbor, MI). 100 μl of sample was transferred into two tubes, one containing 400 μl of DNPH and the other tube containing 400 μl of 2.5 M HCl. […] The absorbance was measured at 385 nm using Spectra Max M5 microplate reader. […]

In the next data set the test system is IL-6. The data set can be described thus: IL-6 ELISA of brain tissue, i.c.v Aβ1-42 mice. Type of data set: in vivo, C57/BL6 mice. Here is the method: as §1
IL-6 ELISA (BMS603HS, invitrogen) was used. Brain tissue samples were assayed in duplicate. Briefly, the strips provided in the kit were washed with 400 μL wash buffer (lx) twice. 50 μL of brain homogenates or standards were added to 50 μL sample diluent (PBS) in each well. […] The samples were read at 450 nm (reference wavelength 620 nm). Quantification of IL-6 in each well was conducted using the standard curve and was normalized to the weight of brain tissue.

The nature of data set [1]: Brain permeability: brain and plasma levels after i.p. dosing (LC-MS/MS). Type of data set: in vivo, mouse. As to conditions: 50 mg/kg i.p. Here is the method: (§2) To ascertain the distribution of sulfanegen to the brain, plasma and brain samples were harvested from intraperitoneally treated animal groups and analyzed via LC-MS/MS. A saline solution of sulfanegen was injected into the mouse peritoneum at a dose of 50 mg/kg. Specifically, samples were collected at 0.25, 0.5, 1, 2, and 4 h after the drug administration. […] Samples were immediately centrifuged at 3000 rpm for 10 min at 4° C., and the separated top plasma layer was transferred into a new tube. Blood samples were stored at −80° C. until LC-MS/MS analysis. For brain samples, brain tissue was extracted from the animal and washed with copious volumes of ice-cold D-PBS for removal of blood from the sample. The brain samples were homogenized by adding 1:5 (w/v) of ice-cold D-PBS into the tube and using a mechanical homogenizer on them. Homogenized brain samples were stored at −80° C.

Data set [2] can be described thus: Oral bioavailability: plasma levels after i.v. and p.o. dosing (LC-MS/MS). The class given is in vivo. As to conditions: mouse. Here is the method:
as §2
Similar experimental design was used for determination of oral bioavailability of sulfanegen (Table 2). Plasma samples were collected after intravenous and oral administration of the compound and concentration of sulfanegen in these samples was determined using LC-MS/MS analysis.

In data set [3] the test system is TBARS (lipid peroxidation). Put plainly: Lipid peroxidation (TBARS) assay, i.c.v Abeta mouse model. The class given is in vivo, C57/BL6 mice. As to conditions: 50 and 100 mg/Kg. Here is the method:
as §1
The extent of lipid peroxidation, in the i.c.v Abeta mouse model (see Example 1), was correlated to the levels of thiobarbituric (TBA) acid-reactive entities (TBARS assay). Homogenized brains were exposed to TBA-trichloroacetic acid (TCA)-chloridic acid reagent (HCl; 0.37% TBA, 0.25 N HCl, and 15% TCA) (1:1:1, 2 mL) and incubated for 15 minutes at […]. […] Total protein was determined through the BCA protein assay. […]

Take `O=C(O)C1(O)CSC(O)(C(=O)O)CS1` (centres unmarked) [sulfanegen]: the H2S release entry in the data set with H2S (500 μM as compared to 250 μM, 6 h) is given as “decrease”; with H2S (up to 250 μM at 6 h, vs vehicle control), “dose-dependent increase”. Moreover, the “protein carbonyl levels in brain” value in the data set on protein carbonyls (50 mg/kg) was “significantly reduced”. In the data set on protein carbonyls (50 or 100 mg/Kg), the “protein carbonyl levels (legend of FIGS. 8A-8C)” value was “significantly reduced”. For the same compound, the “brain IL-6 level” value with IL-6 (50 mg/kg i.p.) is “reduction of increased IL-6 levels; also recorded: significant difference”; in the data set with IL-6 (100 mg/kg i.p.), “Increase in IL-6”. Moreover, the “crossing of the blood brain barrier (BBB)” value in data set [1] is reported as “able to cross the blood brain barrier”. In addition, the “AUC, brain” value in data set [1] (samples 0.25-4 h) came to 51.495 µM·h. Moreover, in data set [1] (mouse, brain/plasma, intraperitoneal, read-out: B/P Ratio (Brain-Plasma ratio)), the Kp amounted to 0.751. Also, the AUC (commonly the area under the concentration-time curve, a measure of exposure) amounted to 68.6 µM·h in data set [1] (mouse, plasma, ip, samples 0.25-4 h); 32.6 µM·h in data set [2] (iv, 10 mg/kg, read-out: AUC, plasma, i.v.); 24.6 µM·h in data set [2] (po, 50 mg/kg, read-out: AUC, plasma, p.o.). In addition, in data set [2] (oral, p.o. 50 mg/kg vs i.v. 10 mg/kg), the bioavailability (commonly the share of a dose that reaches the circulation, judged against a reference dose that is usually intravenous) came out at 15.1%. Further, the “TBARS (lipid peroxidation) levels in brain” value in data set [3] was “significantly reduced”.
